Test results from ChEMBL document CHEMBL1158890, “Complement-inhibiting iridoids from Morinda morindoides” (J Nat Prod, 2003).
Active and inactive are the calls of the source. No cut-off for these calls is given here.

Key:
[1] = Inhibition of classical complement pathway activation by complement modulation test
[2] = Inhibition of alternative complement pathway activation by complement modulation test
[3] = Inhibition of classical complement pathway activation at 6.6 uM assessed as complement modulation test
[4] = Inhibition of classical complement pathway activation at 4 uM assessed as complement modulation test
[5] = Inhibition of classical complement pathway activation at 4 uM in presence of beta glucosidase by complement modulation test

Row | Structure (SMILES) | IC50 [1] | Activity [2] | inhibition [3] | inhibition [4] | inhibition [5]
1 | COC(=O)C1=CO[C@H](O[C@@H]2O[C@H](CO)[C@@H](O)[C@H](O)[C@H]2O)[C@H]2[C@@H]1C=C[C@@]21C=C(C(=O)c2ccc(O)cc2)C(=O)O1 [DEHYDROGAERTNEROSIDE] | > 400 µM | inactive |  |  | 
2 | COC(=O)C1=CO[C@@H](O)[C@@H]2C(CO)=CC[C@H]12 |  |  | 75.3% |  | 
3 | O=C(O)C1=CO[C@@H](O[C@@H]2O[C@H](CO)[C@@H](O)[C@H](O)[C@H]2O)[C@@H]2C(CO)=CC[C@H]12 |  |  |  | 14.3% | 87.3%
4 | COC(=O)C1=CO[C@H](O[C@@H]2O[C@H](COC(C)=O)[C@@H](O)[C@H](O)[C@H]2O)[C@H]2[C@@H]1C=C[C@@]21C=C(C(O)c2ccc(O)cc2)C(=O)O1 (stereo partly specified) [ACETYLGAERTNEROSIDE] | 71 µM | inactive |  |  | 
5 | COC(=O)C1=CO[C@H](O[C@@H]2O[C@H](CO)[C@@H](O)[C@H](O)[C@H]2O)[C@H]2[C@@H]1C=C[C@@]21C=C(C(O)c2ccc(O)c(OC)c2)C(=O)O1 (stereo partly specified) [METHOXYGAERTNEROSIDE] | > 1000 µM | inactive |  |  | 
6 | OCC1=C[C@@H](O)[C@@H]2C=CO[C@@H](O[C@@H]3O[C@H](CO)[C@@H](O)[C@H](O)[C@H]3O)[C@H]12 |  |  |  | 21.7% | 89.3%
7 | O=C(O)C1=CO[C@H](O[C@@H]2O[C@H](CO)[C@@H](O)[C@H](O)[C@H]2O)[C@H]2[C@@H]1C=C[C@@]21C=C(C(O)c2ccc(O)cc2)C(=O)O1 (stereo partly specified) [GAERTNERIC ACID] | 69 µM | inactive |  |  | 
8 | COC(=O)C1=CO[C@H](O[C@@H]2O[C@H](CO)[C@@H](O)[C@H](O)[C@H]2O)[C@H]2[C@@H]1C=C[C@@]21C=C(C(O)c2ccc(O)cc2)C(=O)O1 (stereo partly specified) [GAERTNEROSIDE] | 58 µM | inactive |  |  | 
9 | COC(=O)C1=CO[C@H](O[C@@H]2O[C@H](CO)[C@@H](O)[C@H](O)[C@H]2O)[C@H]2[C@@H]1[C@@H]1O[C@@H]1[C@@]21C=C(C(O)c2ccc(O)c(OC)c2)C(=O)O1 (stereo partly specified) |  | inactive |  |  | 
10 | COC(=O)C1=CO[C@H](O[C@@H]2O[C@H](CO)[C@@H](O)[C@H](O)[C@H]2O)[C@H]2[C@@H]1[C@@H]1O[C@@H]1[C@@]21C=C(C(O)c2ccc(O)cc2)C(=O)O1 (stereo partly specified) [EPOXYGAERTNEROSIDE] | > 1000 µM | inactive |  |  | 
11 | COC(=O)C1=CO[C@@H](O[C@@H]2O[C@H](CO)[C@@H](O)[C@H](O)[C@H]2O)[C@H]2[C@@H]1C=C[C@@]21C=C(C(=O)c2ccc(O)c(OC)c2)C(=O)O1 [DEHYDROMETHOXYGAERTNEROSIDE] | > 400 µM | inactive |  |  | 
12 | COC(=O)C1=CO[C@@H](O[C@@H]2O[C@H](CO)[C@@H](O)[C@H](O)[C@H]2O)[C@@H]2C(CO)=CC[C@H]12 |  |  |  | 23% | 
